13 molecules from patent US6337326B1, “N-aryl-(homopiperazinyl)-cyclohexyl amines” (American Home Products Corporation, priority 1999, dated 2002) can be followed below.

One series has as its target T1, Human 5-HT Transporter (Homo sapiens, UniProt P31645).
T1 construct: endogenous in cells; host or cells: Jar cells (human carcinoma cell line), treated with staurosporine
Nature of the series: Inhibition of 3H-5-HT Uptake by cells Possessing the Human 5-HT Transporter (HC 5-HT Transporter). The format is cell-based. The conditions noted are these: Jar cells (human carcinoma) treated with staurosporine, 37° C., 5 min. As to the method: [Staurosporine greatly increases the expression of the 5-HT-transporter.] On the day of assay, vehicle, excess of fluoxetine, or test compound is added to various wells on the plate. All wells then receive ^3H-5-HT and are incubated at 37° C. for 5 min. The wells are then washed with ice cold 50 mM Tris HCl (pH 7.4) buffer and aspirated to remove free ^3H-5-HT. 25 μl of 0.25 M NaOH is then added to each well to lyse the cells and 75 μl scintillation cocktail (Microscint™ 20) added prior to quantitation on a Packard TopCount machine. Tubes with vehicle represent total possible uptake, radioactivity counted in tubes with fluoxetine represent nonspecific binding/uptake and is subtracted from the total possible uptake to give total possible specific uptake. This nonspecific binding (usual low in number) is then subtracted from the counts obtained in wells with various test compounds (or different concentrations of test drug) to give specific uptake in the presence of drug. Specific uptake is then expressed as a % of control values and is analyzed using nonlinear regression analysis (Prizm) to determine IC50 values. If the compound is active at inhibiting 5-HT uptake, its counts will be close to that obtained with fluoxetine.

In another series the target is T2, 5-HT transporter (Rattus norvegicus, UniProt P31652).
T2 construct: from tissue; host or cells: frontal cortical membranes of male Sprague-Dawley rats
T2 sequence (P31652 whole entry): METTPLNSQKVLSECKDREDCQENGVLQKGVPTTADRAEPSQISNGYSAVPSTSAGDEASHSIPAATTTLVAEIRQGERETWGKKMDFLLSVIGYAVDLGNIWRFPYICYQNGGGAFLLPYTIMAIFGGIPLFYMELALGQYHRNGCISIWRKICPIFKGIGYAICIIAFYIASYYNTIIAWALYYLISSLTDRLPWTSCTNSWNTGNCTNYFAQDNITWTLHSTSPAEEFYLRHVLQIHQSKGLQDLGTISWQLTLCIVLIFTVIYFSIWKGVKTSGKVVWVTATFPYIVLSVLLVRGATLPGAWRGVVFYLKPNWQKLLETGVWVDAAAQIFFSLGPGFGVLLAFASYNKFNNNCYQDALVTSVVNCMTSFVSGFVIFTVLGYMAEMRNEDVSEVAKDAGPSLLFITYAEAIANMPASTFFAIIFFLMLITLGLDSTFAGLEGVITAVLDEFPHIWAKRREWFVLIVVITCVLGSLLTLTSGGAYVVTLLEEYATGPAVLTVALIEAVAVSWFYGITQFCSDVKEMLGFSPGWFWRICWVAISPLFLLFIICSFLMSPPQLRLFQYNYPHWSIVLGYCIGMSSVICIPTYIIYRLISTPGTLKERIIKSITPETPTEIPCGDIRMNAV
As to the kind of experiment: Rat Brain 3H-Paroxetine Binding Assay (RB 5HT Transporter). The conditions noted are these: frontal cortical membranes from male S.D. rats, 3H-paroxetine 0.1 nM, 60 min, 25° C. The procedure: Rat Brain ^3H-Paroxetine Binding Assay (RB 5HT Transporter)
The following assay was used to determine a compound's affinity of the 5-HT transporter.
A protocol similar to that used by Cheetham et. al. (Neuropharmacol. 1993, 32, 737) was used. Briefly, frontal cortical membranes prepared from male S.D. rats were incubated with ^3H-parxetine (0.1 nM) for 60 min. at 25° C. All tubes also contained either vehicle, test compound (one to eight concentrations), or a saturating concentration of fluoxetine (10 μM) to define […]. All reactions are terminated by the addition of ice cold Tris buffer followed by rapid filtration using a Tom Tech filtration device to separate bound from free ^3H-paroxetine. Bound radioactivity was quantitated using a Wallac 1205 Beta Plate® counter. Nonlinear regression analysis was used to determine IC50 values which were converted to Ki values using the method of Cheng and Prusoff (Biochem. Pharmacol. 1973, 22, 3099); [formula]

Structures can show the parent of a compound that is named as a salt.

T1 sequence (P31645 whole entry): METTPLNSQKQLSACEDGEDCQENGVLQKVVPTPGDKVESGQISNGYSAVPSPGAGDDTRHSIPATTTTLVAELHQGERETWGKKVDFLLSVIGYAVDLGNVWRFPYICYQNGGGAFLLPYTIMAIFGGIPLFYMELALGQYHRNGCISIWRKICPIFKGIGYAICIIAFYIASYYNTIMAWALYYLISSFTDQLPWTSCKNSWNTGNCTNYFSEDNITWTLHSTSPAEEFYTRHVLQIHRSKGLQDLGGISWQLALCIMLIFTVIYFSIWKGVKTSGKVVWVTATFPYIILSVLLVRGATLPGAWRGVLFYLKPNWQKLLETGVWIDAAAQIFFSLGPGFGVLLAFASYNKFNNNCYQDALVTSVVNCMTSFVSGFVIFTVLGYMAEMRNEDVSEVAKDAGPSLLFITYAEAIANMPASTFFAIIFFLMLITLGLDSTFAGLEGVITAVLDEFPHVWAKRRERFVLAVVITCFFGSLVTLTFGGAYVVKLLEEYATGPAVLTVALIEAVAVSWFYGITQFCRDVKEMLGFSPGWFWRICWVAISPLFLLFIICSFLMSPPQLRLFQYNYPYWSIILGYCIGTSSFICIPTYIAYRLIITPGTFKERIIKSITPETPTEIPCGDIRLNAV

As a reminder, the melting point is the temperature of the solid-liquid transition. `COc1ccccc1N1CCCN(C2CCC(c3c[nH]c4ccccc34)CC2)CC1` (stereo not shown) (as salt: hydrochloride) [Example 1, 3-{4-[4-(2-Methoxy-phenyl)-[1,4]diazepan-1-yl]-cyclohexyl}-1H-indole]: the melting point fell in the range of 148 to 160 °C.
Still for that read-out and setting: the result for `c1cnc2c(N3CCCN(C4CCC(c5c[nH]c6ccccc56)CC4)CC3)cccc2c1` (stereo not shown) (as salt: hydrochloride) [Example 2, 8-{4-[4-(1H-Indol-3-yl)-cyclohexyl]-[1,4]diazepan-1-yl}-quinoline] reads 152 to 165 °C.
By IC50 is commonly meant the concentration that inhibits the measured activity by half. Low readings indicate greater potency in that assay, high ones weaker potency in that assay. Broadly, the Ki is the dissociation constant of the complex between target and ligand, obtained from inhibition or displacement. On to `COc1ccccc1N1CCCN(C2CCC(c3c[nH]c4ccccc34)CC2)CC1` (stereo not shown) [Example 1, 3-{4-[4-(2-Methoxy-phenyl)-[1,4]diazepan-1-yl]-cyclohexyl}-1H-indole], for which the IC50 at Human 5-HT Transporter was found to be 578 nM. For the same molecule, the Ki on 5-HT transporter came out at 42 nM.
The matching figures for `c1cnc2c(N3CCCN(C4CCC(c5c[nH]c6ccccc56)CC4)CC3)cccc2c1` (stereo not shown) [Example 2, 8-{4-[4-(1H-Indol-3-yl)-cyclohexyl]-[1,4]diazepan-1-yl}-quinoline]: 399 nM and 9 nM.
The matching figures for `COc1ccccc1N1CCCN(C2CCC(c3c[nH]c4ccc(F)cc34)CC2)CC1` (stereo not shown) [Example 3, 3-{4-[4-(2-Methoxy-phenyl)-[1,4]diazepan-1-yl]-cyclohexyl}-5-fluoro-1H-indole]: 1140 nM and 12 nM.
Turning to `COc1ccccc1N1CCCN(C2CCC(c3c[nH]c4ccc(C#N)cc34)CC2)CC1` (stereo not shown) [Example 4], at 5-HT transporter, the inhibition constant (Ki) came to 27 nM.
With `COc1ccccc1N1CCCN(C2CCC(c3c[nH]c4cc(F)ccc34)CC2)CC1` (stereo not shown) [Example 5, 3-{4-[4-(2-Methoxy-phenyl)-[1,4]diazepan-1-yl]-cyclohexyl}-6-fluoro-1H-indole], the IC50 at Human 5-HT Transporter was determined as 272 nM. At 5-HT transporter, this molecule registered an inhibition constant Ki of 4.9 nM.
The matching figures for `Fc1ccc2[nH]cc(C3CCC(N4CCCN(c5cccc6cccnc56)CC4)CC3)c2c1` (stereo not shown) [Example 6, 8-{4-[4-(5-Fluoro-1H-indol-3-yl)-cyclohexyl]-[1,4]diazepan-1-yl}-quinoline]: 602 nM and 9 nM.
At 5-HT transporter, `N#Cc1ccc2[nH]cc(C3CCC(N4CCCN(c5cccc6cccnc56)CC4)CC3)c2c1` (stereo not shown) [Example 7, 8-{4-[4-(5-Cyano-1H-indol-3-yl)-cyclohexyl]-[1,4]diazepan-1-yl}-quinoline] came in with a Ki of 11 nM.
Take `Fc1ccc2c(C3CCC(N4CCCN(c5cccc6cccnc56)CC4)CC3)c[nH]c2c1` (stereo not shown) [Example 8, 8-{4-[4-(6-Fluoro-1H-indol-3-yl)-cyclohexyl]-[1,4]diazepan-1-yl}-quinoline]: the IC50 against Human 5-HT Transporter was 317 nM. On 5-HT transporter, the Ki came out at 2.7 nM.
The matching figures for `Fc1ccc2[nH]cc(C3CCC(N4CCCN(c5cccc(C(F)(F)F)c5)CC4)CC3)c2c1` (stereo not shown) [Example 9, 3-{4-[4-(3-Trifluoromethyl-phenyl)-[1,4]diazepan-1-yl]-cyclohexyl}-5-fluoro-1H-indole]: 4470 nM and 86 nM.
The matching figures for `N#Cc1ccc2[nH]cc(C3CCC(N4CCCN(c5cccc(C(F)(F)F)c5)CC4)CC3)c2c1` (stereo not shown) [Example 10]: 3760 nM and 207 nM.
The matching figures for `Fc1ccc2c(C3CCC(N4CCCN(c5cccc(C(F)(F)F)c5)CC4)CC3)c[nH]c2c1` (stereo not shown) [Example 11, 3-{4-[4-(3-Trifluoromethyl-phenyl)-[1,4]diazepan-1-yl]-cyclohexyl}-6-fluoro-1H-indole]: 1280 nM and 27 nM.
